Assay results taken from article PMC12951430, “Modular Vinyl Phosphonamidates for Cysteine-Directed Protein Targeting” (Journal of the American Chemical Society, 2026).

Experiments:
[1] = unprotected lysine 10 equiv, 5 days, pH 7.4 and pH 8.5, room temperature
Experimental: To this end, unprotected lysine (10 equiv) was incubated with 1a for 5 days (pH 7.4 and pH 8.5, room temperature).
The assay was performed analogously to glutathion reactivity using L -lysine. In addition to pH 7.4
The reaction was monitored for a total
of 5 days and aliquotes were taken at indicated timepoints and analyzed via UPLC -UV/MS.

BTK in RAMOS cells = molecular target: T1, BTK in RAMOS cells (Homo sapiens, UniProt Q06187); experiment: Gel-based ABPP of BTK probes in RAMOS cells; assay type: cell-based; conditions: 250 nM, 1 h, 37 °C
T1 construct: we performed a gel-based ABPP experiment using RAMOS cells; host or cells: RAMOS
T1 sequence (Q06187 whole entry): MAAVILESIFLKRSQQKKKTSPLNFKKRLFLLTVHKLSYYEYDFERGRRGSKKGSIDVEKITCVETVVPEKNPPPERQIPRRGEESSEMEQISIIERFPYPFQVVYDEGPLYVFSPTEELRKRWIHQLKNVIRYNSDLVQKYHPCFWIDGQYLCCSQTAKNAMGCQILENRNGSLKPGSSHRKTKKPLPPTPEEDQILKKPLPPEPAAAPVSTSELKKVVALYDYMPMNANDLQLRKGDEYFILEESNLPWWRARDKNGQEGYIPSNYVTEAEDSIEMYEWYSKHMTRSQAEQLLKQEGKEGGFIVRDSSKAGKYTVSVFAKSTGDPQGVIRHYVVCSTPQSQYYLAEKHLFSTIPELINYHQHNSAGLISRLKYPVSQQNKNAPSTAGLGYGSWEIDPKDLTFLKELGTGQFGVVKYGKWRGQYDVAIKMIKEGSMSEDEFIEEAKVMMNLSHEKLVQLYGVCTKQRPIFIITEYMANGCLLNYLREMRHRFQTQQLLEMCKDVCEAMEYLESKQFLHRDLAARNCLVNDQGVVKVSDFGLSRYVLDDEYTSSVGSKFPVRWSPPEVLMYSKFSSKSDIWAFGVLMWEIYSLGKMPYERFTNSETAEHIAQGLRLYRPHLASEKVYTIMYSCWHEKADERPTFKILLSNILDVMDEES
Source text: Motivated by these promising results, we wanted to extend the scope toward a different class of kinase inhibitors. […] Inspired by these findings, we synthesized a series of VPA probes based on the pyrazolo[3,4-d]-pyrimidine scaffold (8–11, Figure a), each harboring a different aromatic linker. To compare their reactivity and selectivity for BTK, we performed a gel-based ABPP experiment using RAMOS cells. […] In contrast, for all four PA probes, only one intense band was obtained at the same height as BTK. […] Analogously to Afatinib-derived probe 4a, we wanted to investigate whether one stereoisomer might show preferential binding.
(b) Comparison of the in-cell reactivity profiles of BTK probes 8–12 in RAMOS cells (250 nM, 1 h, 37 °C) analyzed by gel-based ABPP. […]
Fluorescence was monitored over 4 h at 30 °C every 60 seconds (λex = 360 nm and λem = 492 nm).
Background‑subtracted fluorescence intensity (RFU) was plotted against time (s), and data were fitted to a single‑phase association model: […]
4.7 In-cell protein labeling and in -gel fluorescence analysis […]
Afterwards, the precipitate was redissolved in 40 µl 8 M urea (100 mM Tris, pH 8), 8 µl Laemmli buffer were added and the samples were denatured at 95 °C for 5 minutes. Proteins were seperated via SDS - PAGE (12% or 4-20% acrylamide gels) and analyzed on a Gel Doc XR+ (Bio-Rad, USA). […]

RAMOS cells = experiment: Streptavidin pull-down with BTK probes in RAMOS cells (LFQ); assay type: cell-based, human; conditions: 10 μM probe, log2-fold change >2.5, p <0.01
Experimental: (b) Comparison of the in-cell reactivity profiles of BTK probes 8–12 in RAMOS cells (250 nM, 1 h, 37 °C) analyzed by gel-based ABPP. (c) Superposition of the two stereoisomers of 9 covalently docked onto the crystal structure of BTK (PDB: 5P9J).
To verify the identity of the protein(s) labeled by our best-performing probe 9, we performed in-cell labeling followed by streptavidin pull-down coupled to LC-MS/MS analysis.
4.8 In-cell protein labeling and s ample preparation for proteomic pull-down Cells were cultured, treated and lysed as described in 4.4. Lysates (approx. 200 μg of protein each) […]
Afterwards, the samples we re processed according to a procedure published by Becker et al. 10: A total of 50 μl of mixed hydrophobic and hydrophilic carboxylate -coated magnetic beads (1:1, prewashed with PBS; Seramag™, Cytavia) was added to the click reaction mixture followed by 600 μl of absolute ethanol to precipitate the proteins. Beads were washed thrice with of 80% ethanol and proteins were eluted by two sequential washes of 0.2% SDS in PBS. […]
The obtained raw-data was analyzed using FragPipe (v20 to 21) using the built-in LFQ-MBR workflow using the whole human proteome as search space and applying the following MSFragger11 settings: […]

SMILES | reactivity toward L-lysine / buffer stability [1] | in-cell reactivity profile (gel bands) (BTK in RAMOS cells) | off-targets significantly enriched (RAMOS cells)
C=CP(=O)(Nc1ccccc1)OCC (stereo not drawn) [1a] | no reaction or degradation products were detected |  | 
C#Cc1cccc(Oc2ccc(-c3nn(C4CCCN(C(=O)C=C)C4)c4ncnc(N)c34)cc2)c1 (stereo not drawn) [compound 12, PF-06658607, reference compound] |  | additional prominent off-target band around 60 kDa | 73
